According to US12551495B2, “Phytoecdysones and derivatives thereof for use in treating disordered respiratory function on viral infection” (priority 2020, dated 2026):

Tests used:
[1] = test system: hypertensive type SH (spontaneously hypertensive) rats; assay: Mean arterial pressure by telemetry in spontaneously hypertensive rats, single oral administration; assay type: in vivo, rat; conditions: Enalapril 50 mg/kg
Method: The effects of BIO101 alone were evaluated after a single oral administration. Six SH rats were used in crossover treatments with an elimination period of a minimum of 72 hours between treatments. Prior to the treatment, the animals were equipped with telemetry instruments for measuring arterial pressure. For the experiment described in FIG. 2A the animals received the following treatments: vehicle, either BIO101 at 5 mg/kg, or BIO101 at 50 mg/kg, or Enalapril at 50 mg/kg.
The inventors tested the phytoecdysones and more particularly BIO101 on the mean arterial pressure by telemetry, in hypertensive animals after oral administration at the doses of 5 and 50 mg/kg. The study relates to hypertensive type SH (spontaneously hypertensive) rats.
BIO101 therefore has no anti-hypertensive effect.

[2] = test system: mouse model of acute lung injury (ALI); conditions: Xia et al. 2016, Song et al. 2019; cited from earlier work
[3] = target: T1, Mas receptor (Homo sapiens, UniProt P04201); conditions: Dilda et al. 2019; cited from earlier work
T1 sequence (P04201 1-325): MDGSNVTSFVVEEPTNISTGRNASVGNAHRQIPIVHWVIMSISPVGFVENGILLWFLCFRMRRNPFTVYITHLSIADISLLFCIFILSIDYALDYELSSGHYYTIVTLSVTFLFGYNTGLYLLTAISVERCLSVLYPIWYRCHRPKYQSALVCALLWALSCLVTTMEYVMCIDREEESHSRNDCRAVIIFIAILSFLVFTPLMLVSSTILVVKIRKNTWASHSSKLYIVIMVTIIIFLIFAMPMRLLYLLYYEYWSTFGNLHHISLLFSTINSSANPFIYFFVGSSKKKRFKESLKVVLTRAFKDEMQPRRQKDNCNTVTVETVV

Row | Compound | anti-hypertensive activity (mean arterial pressure) [1] | anti-inflammatory cytokines (IL-4, IL-10) [2] | lung injuries (histological examination) [2] | plasmatic inflammatory cytokines (TNF-α, IL-2, IL-6, IL-8) [2] | activity on Mas receptor [3]
1 | CCOC(=O)[C@H](CCc1ccccc1)N[C@@H](C)C(=O)N1CCC[C@H]1C(=O)O [Enalapril] | has an anti-hypertensive activity | – | – | – | –
2 | CC(C)(O)CC[C@@H](O)[C@](C)(O)[C@H]1CC[C@@]2(O)C3=CC(=O)[C@@H]4C[C@@H](O)[C@@H](O)C[C@]4(C)[C@H]3CC[C@]12C [20-hydroxyecdysone] | – | increased | reduction in lung injuries | reduced | activates
